Laboratory results from patent publication US20030119904A1, “Acetyl L-carnitine salt with a dicarboxilic organic acid and process for preparing same” (priority 2001, published 2003).
Where a name gives a salt, the structure may show the parent alone.

Columns and labels:
[1] = known from prior art / marketed product; cited from earlier work
[2] = Hygroscopicity: exposure of powder or granules to relative humidity at 25° C. for 24 hours; type: physicochemical
Procedure: By “hygroscopic” is meant herein the bothersome property shown by most of L-carnitine and alkanoyl L-carnitine salts (particularly by their “inner salts”) to undergo, when they occur as powders or granules, significant alteration of their flowability due to their clotting, agglomeration or even deliquescence, following exposure to an environment of relative humidity […] 50-60%, at 25° C., for 24 hours.

## CC(=O)O[C@H](CC(=O)[O-])C[N+](C)(C)C [acetyl L-carnitine inner salt]
[1]
  hygroscopicity (prior art statement): high hygroscopicity

## CC(=O)O[C@H](CC(=O)O)C[N+](C)(C)C.O=C([O-])/C=C/C(=O)O [ALCFH, acetyl L-carnitine acid fumarate]
[2]; non-hygroscopic = withstands relative humidity of at least 60%, as powder or granules, without clotting, agglomeration or deliquescence
  hygroscopicity of the isolated solid: non-hygroscopic
[2]; powder or granules
  relative humidity withstood without loss of flowability: ≥ 60%

## C[N+](C)(C)C[C@H](O)CC(=O)O.O=C([O-])/C=C/C(=O)O [L-carnitine acid fumarate]
[1]
  hygroscopicity (prior art statement): non-hygroscopic
